What was measured:
Type in all cases: cell-based, human
[1] = test system: HCT 116 cells transduced with the PDE5A DD derived GFP constructs; test: Response to Vardenafil, GFP expression by FACS in HCT116; conditions: for MFI / Stabilization ratio with Vardenafil: 48 hours, HCT116; for Basal (DMSO/Parental): Table 10, GFP signal without ligand / auto fluorescence of parental HCT-116; for Basal: Table 15, MFI with DMSO / parental HCT116, Vardenafil experiment
Protocol: (§1) Mutations were created in PDE5A (535-860) catalytic domain using site directed mutagenesis and the mutants were cloned as AcGFP fusion into pELNS vector carrying mCherry marker and packaged in lentiviral vectors. HCT116 cells were transduced with the constructs and stable integrants were selected by cell sorting using mCherry marker. Cells were treated with vehicle (dimethyl sulfoxide, DMSO) or 10 μM Vardenafil (VDF) for 48 hours. Following the treatment, cells were analyzed for GFP expression using FACS. Basal expression was calculated as the ratio of GFP signal in the absence of ligand for a given cell line to auto fluorescence of parental HCT-116 cells. Stabilization ratio was calculated as the ratio of the GFP signal observed in the presence of stabilizing ligand to the signal from the same cell line in the absence of ligand.
HCT 116 cells transduced with the PDE5A DD derived GFP constructs were also tested with increasing doses of Vardenafil. The HCT116 cells were incubated for 48 hours with Vardenafil starting at a dose of 0.002 μM to 30 μM. The GFP intensity of the Vardenafil treated samples was compared to the parental untransduced HCT116 and DMSO treated cells for each construct. The mean fluorescence intensity was calculated for each sample and used to calculate the stabilization ratios as well as the basal expression for each construct. The GFP expression was measured using flow cytometry and the mean fluorescence intensity (MFI) was calculated for each sample. The stabilization ratios are shown in Table 13 and Table 14 and the basal expression is show in Table 15.

[2] = test system: HCT116 cells transduced with the constructs; test: Response to Sildenafil, GFP expression by flow cytometry in HCT116; conditions: for MFI / Stabilization ratio with Sildenafil: 48 hours, HCT116; for Basal expression: Table 26, MFI with DMSO / parental HCT116, Sildenafil experiment
Protocol: Similar experiments were performed in HCT116 cells using sildenafil. The above-mentioned DDs were cloned as AcGFP fusion into pELNS vector carrying mCherry marker and packaged in lentiviral vectors. HCT116 cells were transduced with the constructs and stable integrants were selected by cell sorting using mCherry marker. Cells were treated with sildenafil at the following μM concentrations: 0.01, 0.02, 0.05, 0.14, 0.41, 1.23, 3.7, 11.11, 33.33, and 100 for a duration of 48 hours. The fluorescence was analyzed by flow cytometry and the mean fluorescence intensity was calculated for all samples. […] The stabilization ratios are shown in Table 24 and Table 25 and the basal expression is show in Table 26.

[3] = test system: HCT 116 cells transduced with the PDE5A DD derived GFP constructs; test: Response to Tadalafil, GFP expression by FACS in HCT116; conditions: for MFI / Stabilization ratio with Tadalafil: 48 hours, HCT116; for Basal expression: Table 21, MFI with DMSO / parental HCT116, Tadalafil experiment
Protocol: as §1, with “PDE5AN (#3) was” for “Mutations were created in PDE5A (535-860) catalytic domain using site directed mutagenesis and the mutants were”, “construct” for “constructs”, “varying doses of Tadalafil (TDF)” for “10 μM Vardenafil (VDF)”, “hrs with doses ranging from 0.01 μM to 100 μM.” for “hours.”
HCT 116 cells transduced with the PDE5A DD derived GFP constructs were also tested with increasing doses of Tadalafil. The HCT116 cells were incubated for 48 hours with Tadalafil starting at dose 0.01 μM to 100 μM. The GFP intensity of the Tadalafil treated samples was compared to the parental untransduced HCT116 and DMSO treated cells for each construct. The mean fluorescence intensity was calculated for each sample and used to calculate the stabilization ratios as well as the basal expression for each construct. The stabilization ratios are shown in Table 19 and Table 20 and the basal expression is show in Table 21.

PDE5AC (#43): AcGFP fused to C-terminal DD 535-860 of PDE5A (Q589R, N609H, Y676N, A762S), SEQ ID NO. 29
MFI ([1]; DMSO (no Vardenafil)): 12047
Basal (DMSO/Parental) [1]: 8.7
Basal [1]: 6.17
Stabilization ratio with Vardenafil ([1]; Vardenafil 0.002 μM vs DMSO): 1.1
MFI ([1]; Vardenafil 0.002 μM): 13329
MFI ([1]; Vardenafil 0.005 μM): 17702
Stabilization ratio with Vardenafil ([1]; Vardenafil 0.014 μM vs DMSO): 2.8
MFI ([1]; Vardenafil 0.014 μM): 33483
Stabilization ratio with Vardenafil ([1]; Vardenafil 0.041 μM vs DMSO): 4.6
MFI ([1]; Vardenafil 0.041 μM): 55300
Stabilization ratio with Vardenafil ([1]; Vardenafil 0.123 μM vs DMSO): 5.8
MFI ([1]; Vardenafil 0.123 μM): 70385
Stabilization ratio with Vardenafil ([1]; Vardenafil 0.370 μM vs DMSO): 6.5
MFI ([1]; Vardenafil 0.370 μM): 78215
Stabilization ratio with Vardenafil ([1]; Vardenafil 1.111 μM vs DMSO): 6.9
MFI ([1]; Vardenafil 1.111 μM): 83052
Stabilization ratio with Vardenafil ([1]; Vardenafil 3.333 μM vs DMSO): 7.4
MFI ([1]; Vardenafil 3.333 μM): 88707
Stabilization ratio with Vardenafil ([1]; Vardenafil 10 μM vs DMSO): 7.1
MFI ([1]; Vardenafil 10 μM): 85867
Stabilization ratio with Vardenafil ([1]; Vardenafil 30 μM vs DMSO): 7.2
MFI ([1]; Vardenafil 30 μM): 86318
MFI ([2]; DMSO (no Sildenafil)): 11147
Stabilization ratio with Sildenafil ([2]; Sildenafil 0.01 μM vs DMSO): 1.1
MFI ([2]; Sildenafil 0.01 μM): 11962
Stabilization ratio with Sildenafil ([2]; Sildenafil 0.02 μM vs DMSO): 1.1
MFI ([2]; Sildenafil 0.02 μM): 11940
Stabilization ratio with Sildenafil ([2]; Sildenafil 0.05 μM vs DMSO): 1.4
MFI ([2]; Sildenafil 0.05 μM): 15203
MFI ([2]; Sildenafil 0.14 μM): 24319
Stabilization ratio with Sildenafil ([2]; Sildenafil 0.41 μM vs DMSO): 3.6
MFI ([2]; Sildenafil 0.41 μM): 40470
Stabilization ratio with Sildenafil ([2]; Sildenafil 1.23 μM vs DMSO): 5.2
MFI ([2]; Sildenafil 1.23 μM): 57723
Stabilization ratio with Sildenafil ([2]; Sildenafil 3.70 μM vs DMSO): 6.6
MFI ([2]; Sildenafil 3.70 μM): 73400
Stabilization ratio with Sildenafil ([2]; Sildenafil 11.11 μM vs DMSO): 6.9
MFI ([2]; Sildenafil 11.11 μM): 76900
Stabilization ratio with Sildenafil ([2]; Sildenafil 33.33 μM vs DMSO): 8.5
MFI ([2]; Sildenafil 33.33 μM): 94863
Stabilization ratio with Sildenafil ([2]; Sildenafil 100.00 μM vs DMSO): 5.1
MFI ([2]; Sildenafil 100.00 μM): 56552
Basal expression [2]: 8.7
MFI ([3]; DMSO (no Tadalafil)): 10998
Basal expression [3]: 8.59
Stabilization ratio with Tadalafil ([3]; Tadalafil 0.01 μM vs DMSO): 1.0
MFI ([3]; Tadalafil 0.01 μM): 11444
Stabilization ratio with Tadalafil ([3]; Tadalafil 0.02 μM vs DMSO): 1.0
MFI ([3]; Tadalafil 0.02 μM): 11479
Stabilization ratio with Tadalafil ([3]; Tadalafil 0.05 μM vs DMSO): 1.1
MFI ([3]; Tadalafil 0.05 μM): 11764
Stabilization ratio with Tadalafil ([3]; Tadalafil 0.14 μM vs DMSO): 1.2
MFI ([3]; Tadalafil 0.14 μM): 13429
Stabilization ratio with Tadalafil ([3]; Tadalafil 0.41 μM vs DMSO): 1.7
MFI ([3]; Tadalafil 0.41 μM): 18940
Stabilization ratio with Tadalafil ([3]; Tadalafil 1.23 μM vs DMSO): 2.9
MFI ([3]; Tadalafil 1.23 μM): 32204
Stabilization ratio with Tadalafil ([3]; Tadalafil 3.7 μM vs DMSO): 4.5
MFI ([3]; Tadalafil 3.7 μM): 49646
Stabilization ratio with Tadalafil ([3]; Tadalafil 11.11 μM vs DMSO): 5.8
MFI ([3]; Tadalafil 11.11 μM): 64186
Stabilization ratio with Tadalafil ([3]; Tadalafil 33.33 μM vs DMSO): 6.8
MFI ([3]; Tadalafil 33.33 μM): 74446
Stabilization ratio with Tadalafil ([3]; Tadalafil 100 μM vs DMSO): 6.9
MFI ([3]; Tadalafil 100 μM): 76281

PDE5AN (#53): N-terminal DD 535-860 of PDE5A (E536G, Q589R, C839S), SEQ ID NO. 67, fused to AcGFP
MFI ([1]; DMSO (no Vardenafil)): 14196
Basal (DMSO/Parental) [1]: 14.0
Basal [1]: 7.27
Stabilization ratio with Vardenafil ([1]; Vardenafil 0.002 μM vs DMSO): 1.0
MFI ([1]; Vardenafil 0.002 μM): 14117
Stabilization ratio with Vardenafil ([1]; Vardenafil 0.005 μM vs DMSO): 1.0
MFI ([1]; Vardenafil 0.005 μM): 14485
Stabilization ratio with Vardenafil ([1]; Vardenafil 0.014 μM vs DMSO): 1.1
MFI ([1]; Vardenafil 0.014 μM): 15735
Stabilization ratio with Vardenafil ([1]; Vardenafil 0.041 μM vs DMSO): 1.2
MFI ([1]; Vardenafil 0.041 μM): 17260
Stabilization ratio with Vardenafil ([1]; Vardenafil 0.123 μM vs DMSO): 1.8
MFI ([1]; Vardenafil 0.123 μM): 25577
Stabilization ratio with Vardenafil ([1]; Vardenafil 0.370 μM vs DMSO): 3.1
MFI ([1]; Vardenafil 0.370 μM): 43744
Stabilization ratio with Vardenafil ([1]; Vardenafil 1.111 μM vs DMSO): 5.7
MFI ([1]; Vardenafil 1.111 μM): 81455
Stabilization ratio with Vardenafil ([1]; Vardenafil 3.333 μM vs DMSO): 9.2
MFI ([1]; Vardenafil 3.333 μM): 131016
Stabilization ratio with Vardenafil ([1]; Vardenafil 10 μM vs DMSO): 12.2
MFI ([1]; Vardenafil 10 μM): 173576
Stabilization ratio with Vardenafil ([1]; Vardenafil 30 μM vs DMSO): 13.3
MFI ([1]; Vardenafil 30 μM): 188519
MFI ([2]; DMSO (no Sildenafil)): 13747
Stabilization ratio with Sildenafil ([2]; Sildenafil 0.01 μM vs DMSO): 0.9
MFI ([2]; Sildenafil 0.01 μM): 12801
Stabilization ratio with Sildenafil ([2]; Sildenafil 0.02 μM vs DMSO): 1.0
MFI ([2]; Sildenafil 0.02 μM): 14045
Stabilization ratio with Sildenafil ([2]; Sildenafil 0.05 μM vs DMSO): 1.0
MFI ([2]; Sildenafil 0.05 μM): 13801
Stabilization ratio with Sildenafil ([2]; Sildenafil 0.14 μM vs DMSO): 1.0
MFI ([2]; Sildenafil 0.14 μM): 14048
Stabilization ratio with Sildenafil ([2]; Sildenafil 0.41 μM vs DMSO): 1.2
MFI ([2]; Sildenafil 0.41 μM): 16175
Stabilization ratio with Sildenafil ([2]; Sildenafil 1.23 μM vs DMSO): 1.5
MFI ([2]; Sildenafil 1.23 μM): 20410
Stabilization ratio with Sildenafil ([2]; Sildenafil 3.70 μM vs DMSO): 2.2
MFI ([2]; Sildenafil 3.70 μM): 30372
Stabilization ratio with Sildenafil ([2]; Sildenafil 11.11 μM vs DMSO): 4.3
MFI ([2]; Sildenafil 11.11 μM): 59723
Stabilization ratio with Sildenafil ([2]; Sildenafil 33.33 μM vs DMSO): 7.2
MFI ([2]; Sildenafil 33.33 μM): 99558
Stabilization ratio with Sildenafil ([2]; Sildenafil 100.00 μM vs DMSO): 8.6
MFI ([2]; Sildenafil 100.00 μM): 117792
Basal expression [2]: 10.7
MFI ([3]; DMSO (no Tadalafil)): 12071
Basal expression [3]: 9.43
Stabilization ratio with Tadalafil ([3]; Tadalafil 0.01 μM vs DMSO): 1.0
MFI ([3]; Tadalafil 0.01 μM): 11635
Stabilization ratio with Tadalafil ([3]; Tadalafil 0.02 μM vs DMSO): 1.0
MFI ([3]; Tadalafil 0.02 μM): 11690
Stabilization ratio with Tadalafil ([3]; Tadalafil 0.05 μM vs DMSO): 1.0
MFI ([3]; Tadalafil 0.05 μM): 12100
Stabilization ratio with Tadalafil ([3]; Tadalafil 0.14 μM vs DMSO): 1.0
MFI ([3]; Tadalafil 0.14 μM): 12331
Stabilization ratio with Tadalafil ([3]; Tadalafil 0.41 μM vs DMSO): 1.1
MFI ([3]; Tadalafil 0.41 μM): 13422
Stabilization ratio with Tadalafil ([3]; Tadalafil 1.23 μM vs DMSO): 1.3
MFI ([3]; Tadalafil 1.23 μM): 16255
Stabilization ratio with Tadalafil ([3]; Tadalafil 3.7 μM vs DMSO): 2.0
MFI ([3]; Tadalafil 3.7 μM): 24201
Stabilization ratio with Tadalafil ([3]; Tadalafil 11.11 μM vs DMSO): 3.5
MFI ([3]; Tadalafil 11.11 μM): 42644
Stabilization ratio with Tadalafil ([3]; Tadalafil 33.33 μM vs DMSO): 6.6
MFI ([3]; Tadalafil 33.33 μM): 80088
Stabilization ratio with Tadalafil ([3]; Tadalafil 100 μM vs DMSO): 8.6
MFI ([3]; Tadalafil 100 μM): 104032
